For assay [1], the target named is α2-adrenoceptor. Briefly: Saturation radioligand binding of [^3H]-RX821002 to sheep anorectal tissue membranes. On the procedure:
Fresh sheep anorectal tissues were dissected from whole buttock from sheep within four hours of slaughter. The buttocks were delivered in a dry bag and stored at 4° C. until dissected. The tissues used in this experiment included rectal smooth muscle (RSM), rectal mucosa (RM), anal mucosa (AM), internal anal sphincter (IAS), sheep rectal artery (SRA), sheep rectal vein (SRV), and the terminal branches of rectal vessels (TB). The dissected tissues were kept at −20° C. until used. Prior to starting an experiment, the tissue was removed from the freezer and allowed to defrost on ice. […] Non-specific binding was determined using an excessive amount of unlabelled specific receptor ligand. […] Three ml of scintillation fluid (PerkinElmer, UK) was subsequently added into each vial, and left at least 8 hours (preferably overnight) before processing for radioactivity measurement. The amount of radioactivity bound to the filters was measured using a liquid scintillation analyser (Tri-Carb 2100TR, PerkinElmer, UK). The radioactivity was reported as disintegrations per minute (dpm). […] Specific binding of the radioligand to the membranes was calculated by subtracting the non-specific binding from the total binding. Receptor density (Bmax) and ligand dissociation constant (Kd) were then calculated using the specific saturation binding curve of each experiment.

Assay [2] deals with α2-adrenoceptor. To be noted: porcine vessels; cited from earlier work.

As a reminder, the Kd is the equilibrium constant for the complex coming apart.

Where two headings read alike, the source gives them in different places.

Consider `COC1(C2=NCCN2)COc2ccccc2O1` (stereo not drawn) [[^3H]-RX821002, 2-(2-methoxy-1,4-benzodioxan-2-yl)-2-imidazoline], for which the Kd at α2-adrenoceptor [1] (sheep rectal arteries, read-out: Kd of radioligand for α2-adrenoceptor) is 1.42 nM; on α2-adrenoceptor [1] (sheep rectal vein and terminal branches of sheep rectal vessels, read-out: Kd of α2-adrenoceptor), ~0.3 nM; on α2-adrenoceptor [2] it was 1.3 to 2.2 nM.

The record behind these values is US20160287536A1, “Composition” (THE UNIVERSITY OF NOTTINGHAM, priority 2013, published 2016).
